Common to all, as to design: species or system Curvularia lunata
In experiment [1] the target is T1, 17-beta-hydroxysteroid-dehydrogenase (Cochliobolus lunatus, UniProt O93874).
T1 sequence (O93874 whole entry): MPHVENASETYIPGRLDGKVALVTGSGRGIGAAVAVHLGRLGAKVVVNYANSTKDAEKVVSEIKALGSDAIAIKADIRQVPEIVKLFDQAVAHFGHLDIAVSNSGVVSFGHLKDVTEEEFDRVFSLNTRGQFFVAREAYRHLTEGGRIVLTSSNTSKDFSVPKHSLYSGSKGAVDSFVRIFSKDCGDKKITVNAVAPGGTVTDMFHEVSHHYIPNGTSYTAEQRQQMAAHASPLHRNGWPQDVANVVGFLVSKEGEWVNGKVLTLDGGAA
Put plainly: Inhibitory activity against 17 beta-hydroxysteroid dehydrogenase catalysed oxidation reaction.

For experiment [2], the target named is T1, 17-beta-hydroxysteroid-dehydrogenase. Nature of the experiment: Inhibitory activity against 17 beta-hydroxysteroid dehydrogenase catalysed reduction reaction.
Experiment [3] shares this target. Nature of the experiment: Inhibitory activity against 17 beta-hydroxysteroid dehydrogenase catalysed oxidation reaction; NI=no inhibition.
For experiment [4] the target is unchanged. Nature of the experiment: Inhibitory activity against 17 beta-hydroxysteroid dehydrogenase catalysed reduction reaction; NI=no inhibition.

Take `O=C(OCc1ccccc1)c1cc2ccccc2oc1=O`: the 50% inhibitory concentration (IC50) stood at 2.7 µM in experiment [1] and 8 µM in experiment [2] (read-out: IC50).

In the case of `CC(=O)Nc1ccc(OC(=O)/C=C/c2ccccc2)cc1`, the IC50 in experiment [1] and in experiment [2] (read-out: IC50) was over 200 µM each time.

Turning to `COc1cc(COC(=O)c2cc3ccccc3oc2=O)cc(OC)c1OC`, the IC50 result in experiment [3] and in experiment [4] was “Not Active” throughout.

Consider `N#Cc1ccc(OC(=O)/C=C/c2ccccc2)cc1`, for which the IC50 was 13 µM in experiment [1] and “Not Active” in experiment [4].

In the case of `O=C(/C=C/c1ccccc1)OCc1cccc(Oc2ccccc2)c1`, the IC50 in experiment [1] was 130 µM; in experiment [4], “Not Active”.

Regarding `COc1cc(COC(=O)/C=C/c2ccccc2)cc(OC)c1OC`, the IC50 in experiment [1] is 14 µM; in experiment [4], “Not Active”.

With `O=C(/C=C/c1ccccc1)OCN1C(=O)c2ccccc2C1=O`, the IC50 in experiment [1] was 10 µM; in experiment [4], “Not Active”.

Regarding `COc1cccc(OC(=O)/C=C/c2ccccc2)c1`, the values for the IC50 in experiment [1] and in experiment [2] were 135 µM and “No inhibition”, respectively.

For the compound `O=C(/C=C/c1ccccc1)Oc1cccc2ccccc12`, half-maximal inhibition in experiment [1] (IC50) required 10 µM.

`O=C(OCN1C(=O)c2ccccc2C1=O)c1cc2ccccc2oc1=O`: the half-maximal inhibitory concentration (IC50) result in experiment [3] and in experiment [4] was “Not Active” in each case.

`CCCCCCCC(=O)Nc1ccc(OC(=O)/C=C/c2ccccc2)cc1`: the IC50 in experiment [1] and in experiment [2] (read-out: IC50) was over 200 µM throughout.

Consider `O=C(/C=C/c1ccccc1)OCCN1C(=O)c2ccccc2C1=O`, for which the half-inhibitory concentration (IC50) in experiment [1] was 5 µM; in experiment [2] (read-out: IC50) it was 90 µM.

On to `O=C(OCCN1C(=O)c2ccccc2C1=O)c1cc2ccccc2oc1=O`, for which the half-inhibitory concentration (IC50) result in experiment [3] and in experiment [4] was “Not Active” each time.

On to `O=C(/C=C/c1ccccc1)OC1CCCCC1`, for which the IC50 result in experiment [3] and in experiment [4] was “Not Active” throughout.

`O=C(/C=C/c1ccccc1)OCc1ccccc1` [BENZYL CINNAMATE]: the IC50 was found to be 0.7 µM in experiment [1] and 7 µM in experiment [2] (read-out: IC50).

For the compound `O=C(/C=C/c1ccccc1)Oc1ccccc1` [PHENYL CINNAMATE], the IC50 in experiment [1] is 26 µM; in experiment [2] (read-out: IC50), over 200 µM.

The record behind these values is ChEMBL document CHEMBL1137117, “Cinnamic acid esters as potent inhibitors of fungal 17beta-hydroxysteroid dehydrogenase--a model enzyme of the short-chain dehydrogenase/reductase superfamily” (Bioorg Med Chem Lett, 2004).
